# Data as given in ChEMBL document CHEMBL2331358, “Novel agmatine dipeptide inhibitors against the West Nile virus NS2B/NS3 protease: a P3 and N-cap optimization study” (Eur J Med Chem, 2013).
# pIC50: −log10 of the molar value.
# Test: Inhibition of West Nile virus NS2B-NS3 serine protease using Pyr-RTKR-AMC as substrate incubated for 1 hr prior to substrate addition measured every 45 secs for 1 hr by fluorescence assay
row,pIC50,SMILES
1,4.74,CC(=O)N[C@@H](CCCCN)C(=O)N[C@@H](CCCCN)C(=O)NCCCCNC(=N)N
2,4.42,N=C(N)NCCCCNC(=O)[C@H](CCCCN)NC(=O)[C@@H](N)CCCCN
3,4.72,CCC(=O)N[C@@H](CCCCN)C(=O)N[C@@H](CCCCN)C(=O)NCCCCNC(=N)N
4,4.73,CCCC(=O)N[C@@H](CCCCN)C(=O)N[C@@H](CCCCN)C(=O)NCCCCNC(=N)N
5,4.72,CC(C)CC(=O)N[C@@H](CCCCN)C(=O)N[C@@H](CCCCN)C(=O)NCCCCNC(=N)N
6,4.62,CC(C)C(=O)N[C@@H](CCCCN)C(=O)N[C@@H](CCCCN)C(=O)NCCCCNC(=N)N
7,4.57,CC(C)(C)C(=O)N[C@@H](CCCCN)C(=O)N[C@@H](CCCCN)C(=O)NCCCCNC(=N)N
8,4.41,N=C(N)NCCCCNC(=O)[C@H](CCCCN)NC(=O)[C@H](CCCCN)NC(=O)c1ccccc1
9,5.07,N=C(N)NCCCCNC(=O)[C@H](CCCCN)NC(=O)[C@H](CCCCN)NC(=O)Cc1ccccc1
10,4.37,N=C(N)NCCCCNC(=O)[C@H](CCCCN)NC(=O)[C@H](CCCCN)NC(=O)CCc1ccccc1
11,5.59,N=C(N)NCCCCNC(=O)[C@H](CCCCN)NC(=O)[C@H](CCCCN)NC(=O)Cc1ccccc1Cl
12,5.02,N=C(N)NCCCCNC(=O)[C@H](CCCCN)NC(=O)[C@H](CCCCN)NC(=O)Cc1cccc(Cl)c1
13,5.32,N=C(N)NCCCCNC(=O)[C@H](CCCCN)NC(=O)[C@H](CCCCN)NC(=O)Cc1ccc(Cl)cc1
14,5.17,Cc1ccccc1CC(=O)N[C@@H](CCCCN)C(=O)N[C@@H](CCCCN)C(=O)NCCCCNC(=N)N
15,5.04,Cc1cccc(CC(=O)N[C@@H](CCCCN)C(=O)N[C@@H](CCCCN)C(=O)NCCCCNC(=N)N)c1
16,5.16,Cc1ccc(CC(=O)N[C@@H](CCCCN)C(=O)N[C@@H](CCCCN)C(=O)NCCCCNC(=N)N)cc1
17,< 4.00,N=C(N)NCCCCNC(=O)[C@H](CCCCN)NC(=O)CNCC(=O)c1ccc(-c2ccccc2)cc1
18,4.27,C[C@H](NCC(=O)c1ccc(-c2ccccc2)cc1)C(=O)N[C@@H](CCCCN)C(=O)NCCCCNC(=N)N
19,< 4.00,CC(=O)N[C@@H](CCCCN)C(=O)NCCCCNC(=N)N

# Second part, the compound before the results:
row,SMILES,pIC50
1,N=C(N)NCCCCNC(=O)[C@H](CCCCN)NC(=O)[C@H](CCCCN)NC(=O)Cc1cccc(-c2ccccc2)c1,5.00
2,N=C(N)NCCCCNC(=O)[C@H](CCCCN)NC(=O)[C@H](Cc1ccc(O)cc1)NCC(=O)c1ccc(-c2ccccc2)cc1,4.47
3,N=C(N)NCCCCNC(=O)[C@H](CCCCN)NC(=O)[C@H](CCCCN)NC(=O)c1cccc2ccccc12,4.48
4,N=C(N)NCCCCNC(=O)[C@H](CCCCN)NC(=O)[C@H](CCCCN)NC(=O)c1ccc2ccccc2c1,4.49
5,N=C(N)NCCCCNC(=O)[C@H](CCCCN)NC(=O)[C@H](CCCCN)NC(=O)CCCc1ccccc1,4.95
6,N=C(N)NCCCCNC(=O)[C@H](CCCCN)NC(=O)[C@@H](CCCCN)NCC(=O)c1ccc(-c2ccccc2)cc1,< 4.00
7,CC(C)[C@H](NCC(=O)c1ccc(-c2ccccc2)cc1)C(=O)N[C@@H](CCCCN)C(=O)NCCCCNC(=N)N,< 4.00
8,CC(C)C[C@H](NCC(=O)c1ccc(-c2ccccc2)cc1)C(=O)N[C@@H](CCCCN)C(=O)NCCCCNC(=N)N,< 4.00
9,CCCC[C@H](NCC(=O)c1ccc(-c2ccccc2)cc1)C(=O)N[C@@H](CCCCN)C(=O)NCCCCNC(=N)N,4.32
10,N=C(N)NCCCCNC(=O)[C@H](CCCCN)NC(=O)[C@@H]1CCCN1CC(=O)c1ccc(-c2ccccc2)cc1,< 4.00
11,N=C(N)NCCCCNC(=O)[C@H](CCCCN)NC(=O)[C@H](CC(N)=O)NCC(=O)c1ccc(-c2ccccc2)cc1,< 4.00
12,N=C(N)NCCCCNC(=O)[C@H](CCCCN)NC(=O)[C@H](CCC(N)=O)NCC(=O)c1ccc(-c2ccccc2)cc1,< 4.00
13,N=C(N)NCCCCNC(=O)[C@H](CCCCN)NC(=O)[C@H](CO)NCC(=O)c1ccc(-c2ccccc2)cc1,< 4.00
14,N=C(N)NCCCCNC(=O)[C@H](CCCCN)NC(=O)[C@H](CC(=O)O)NCC(=O)c1ccc(-c2ccccc2)cc1,< 4.00
15,N=C(N)NCCCCNC(=O)[C@H](CCCCN)NC(=O)[C@H](CCC(=O)O)NCC(=O)c1ccc(-c2ccccc2)cc1,< 4.00
16,N=C(N)NCCCCNC(=O)[C@H](CCCCN)NC(=O)[C@H](CCCNC(=N)N)NCC(=O)c1ccc(-c2ccccc2)cc1,4.72
17,N=C(N)NCCCCNC(=O)[C@H](CCCCN)NC(=O)[C@H](Cc1cnc[nH]1)NCC(=O)c1ccc(-c2ccccc2)cc1,< 4.00
18,N=C(N)NCCCCNC(=O)[C@H](CCCCN)NC(=O)[C@H](Cc1ccccc1)NCC(=O)c1ccc(-c2ccccc2)cc1,4.35
19,N=C(N)NCCCCNC(=O)[C@H](CCCCN)NC(=O)[C@H](CCCCN)NCC(=O)c1ccc(-c2ccccc2)cc1,5.33
